{
  "source": "patent US20170333459A1",
  "about": "(priority 2010, published 2017)",
  "test_system": "ectromelia, cowpox, vaccinia, or monkeypox virus",
  "parameters": "species or system mice",
  "details": "mouse, in vivo",
  "data": [
    {"smiles": "CCCCCCCCCCCCCCCCOCCCOP(=O)(O)CO[C@H](CO)Cn1ccc(N)nc1=O", "note": "[CMX001, 1-O-hexadecyloxypropyl cidofovir]", "values": [
      {"measurement": "preventing mortality", "value": "effective in preventing mortality"}
    ]}
  ]
}
